Data as given in PMC9664868, “Dephospho-Coenzyme A Kinase Is an Exploitable Drug Target against Plasmodium falciparum: Identification of Selective Inhibitors by High-Throughput Screening of a Large Chemical Compound Library” (Antimicrobial Agents and Chemotherapy, 2022).
Where two headings read alike, the source gives them in different places.

Legend:
HsCOASY = target: T1, HsCOASY (Homo sapiens, UniProt Q13057); assay: Kinetic analysis of recombinant HsCOASY (ADP Hunter Plus); assay type: biochemical; settings: substrate of HsCOASY
T1 construct: His tag (pCold1 vector); made in house; host or cells: Escherichia coli BL21Star (DE3)
T1 sequence (Q13057 1-564): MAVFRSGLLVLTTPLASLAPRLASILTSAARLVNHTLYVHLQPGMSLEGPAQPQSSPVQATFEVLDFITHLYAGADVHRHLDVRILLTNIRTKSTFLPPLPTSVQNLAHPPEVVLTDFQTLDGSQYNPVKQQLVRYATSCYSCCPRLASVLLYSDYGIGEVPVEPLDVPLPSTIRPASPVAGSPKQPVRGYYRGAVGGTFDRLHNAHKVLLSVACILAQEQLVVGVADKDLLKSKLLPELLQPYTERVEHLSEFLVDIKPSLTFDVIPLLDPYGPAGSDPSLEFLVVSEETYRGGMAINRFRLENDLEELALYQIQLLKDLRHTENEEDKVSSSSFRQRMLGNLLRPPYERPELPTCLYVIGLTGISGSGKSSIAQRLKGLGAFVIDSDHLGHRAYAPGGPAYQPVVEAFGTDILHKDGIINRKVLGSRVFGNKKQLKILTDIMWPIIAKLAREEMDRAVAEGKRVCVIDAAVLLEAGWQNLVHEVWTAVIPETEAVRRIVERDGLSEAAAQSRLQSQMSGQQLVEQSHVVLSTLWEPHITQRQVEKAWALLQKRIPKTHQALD
Procedure: (§1) PfDPCK and HsCOASY activity was measured by quantifying ADP produced in the reaction by a coupling assay using the ADP Hunter Plus assay kit (DiscoverX, USA) according to the manufacturer's instructions. Briefly, enzymatic reactions were carried out in a 20-μL mixture of assay buffer containing 15 mM HEPES, 20 mM NaCl, 1 mM EGTA, 0.02% Tween 20, 10 mM MgCl2, 0.1% bovine gamma globulin, 50 ng of recombinant PfDPCK or HsCOASY, 4 to 256 μM dephospho-CoA, and 5 to 300 μM ATP on a black microplate. All reactions were performed for 2 h, reagents A and B were added, and they were then reincubated for 60 min at 30°C. After reactions were terminated by addition of ADP Hunter Stop solution, the fluorescent signal was measured using SpectraMax Paradigm (Molecular Devices, CA, USA) at excitation and emission wavelengths of 530 and 590 nm, respectively. The kinetic parameters were calculated using the nonlinear regression function using the single saturating concentrations of the substrates by the GraphPad Prism software (GraphPad Software Inc., San Diego, CA). The experiments were repeated three times in triplicate using proteins purified from independent cultures. Kinetic values of enzymes are presented as the means ± standard errors (SEs).

PfDPCK [1] = target: T2, PfDPCK (Plasmodium falciparum, UniProt Q8IL34); assay: Kinetic analysis of recombinant PfDPCK (ADP Hunter Plus); assay type: biochemical
Procedure: as §1

[2] = test system: P. falciparum drug-resistant Dd2 strain; assay: Erythrocytic-stage parasite growth inhibition, diaphorase-coupled LDH assay, Dd2; assay type: cell-based, Plasmodium falciparum; settings: for IC50: Plasmodium falciparum
Procedure: (§2) Selected hit compounds were also tested against erythrocytic-stage parasites of P. falciparum drug-sensitive 3D7 and drug-resistant Dd2 strains ([39]). For the phenotypic assay, parasite cultures were synchronized with 5% (wt/vol) D-sorbitol as previously described ([40]). A synchronized culture containing ring-stage parasites of 0.3% parasitemia was initiated with a culture volume of 25 μL/well on a 384-well plate. A series of diluted compounds (at final concentrations of 50, 10, 2, 0.4, and 0.08 μM) were used to calculate IC50 values. Mefloquine at 50 μM and atovaquone at 20 μM were used as no-growth control (100% inhibition). After 72 h of incubation, parasite growth was measured by diaphorase-coupled lactate dehydrogenase (LDH) assay as previously described ([41]). Absorbance at 650 nm was measured using SpectraMax Paradigm multimode microplate reader (Molecular Devices, San Jose, CA, USA). The IC50 values were calculated as described above.

[3] = test system: P. falciparum drug-sensitive 3D7 strain; assay: Erythrocytic-stage parasite growth inhibition, diaphorase-coupled LDH assay, 3D7; assay type: cell-based, Plasmodium falciparum
Procedure: as §2

PfDPCK [4] = target: T2, PfDPCK; assay: PfDPCK inhibition, enzyme-coupled fluorescence ADP detection assay (HTS and IC50 determination); assay type: biochemical
Procedure: High-throughput screening against recombinant PfDPCK was performed using the Drug Discovery Initiative (DDI) full library, available from The University of Tokyo, composed of approximately 210,000 compounds. The primary assay was performed on 1,536-well white plate format with a final volume of 2 μL/well, containing 10 μM test compounds using a Multidrop Combi reagent dispenser (Thermo Fisher Scientific, Waltham, MA). The reaction was conducted in the assay buffer described above with 100 μM ATP and 50 μM dephospho-CoA. The assay was carried out at room temperature for 4 h in a closed plastic container with wet tissues. The reaction was stopped, and produced ADP was quantified using an enzyme-coupled fluorescence ADP detection assay, using PHERAstar microplate reader (BMG Labtech, Offenburg, Germany) with excitation at 540 nm and emission at 590 nm, as previously described ([17]). The inhibition level was calculated as the percentage inhibition of DPCK activity with each compound compared to the activity with only dimethyl sulfoxide (DMSO) as control (no inhibition) and that with no enzyme as 100% inhibition. IC50 values of the hit compounds were determined under the same assay conditions for the screening: Z′ factor, signal-to-background ratio (S/B), signal-to-noise ratio (S/N), and coefficient of variation (CV) were calculated to estimate the quality of screening system as previously described ([18], [38]).
The primary hits were reassayed in quadruplicate (n = 4) as in the primary screening. We next tested the confirmed secondary hits to exclude false positives that inhibit coupled fluorescence assay, but not PfDPCK. After exclusion of false positives, all tertiary hits were tested against human HsCOASY in the counterassay to exclude compounds that inhibit both PfDPCK and HsCOASY. The compounds showing >10% inhibition against HsCOASY were excluded from further studies. The IC50 values of the hit compounds were determined under the same assay conditions described as above for the primary screening, with the serially diluted compounds at 20, 10, 2.5, 0.5, and 0.1 μM at final concentrations. The assay was conducted in quadruplicate for each dilution, and IC50 values were calculated using GraphPad Software (San Diego, California USA).

HepG2 cell line = assay: Cytotoxicity assay (Cell Counting Kit-8); assay type: cell-based, human; settings: Homo sapiens, HepG2, read-out: IC50 (μM) of: HepG2
Procedure: Cytotoxicity against human cells was evaluated using the human liver carcinoma HepG2 cell line. HepG2 cells were cultured in D-MED supplemented with 4 mM L-glutamine and 10% fetal bovine serum (FBS) in a 75-cm^2 flask (Violamo) at 37°C. For the cytotoxicity assay, HepG2 cells in semiconfluent state were detached from the flask by incubating the cells with 5 mL D-MEM containing 0.25% trypsin-EDTA. After detachment, HepG2 cells were resuspended in D-MEM-supplemented L-glutamine and FBS, and cell viability was evaluated by incubating cells with 0.4% Trypan blue on a hemocytometer. An approximately 50-μL suspension containing 3,000 cells was dispensed into each well on a 384-well clear-bottom plate using a Multidrop Combi dispenser. Compounds dissolved in DMSO had been dispensed into wells to yield final concentrations of 100, 20, 4, 0.8, and 0.2 μM before cells were added. After cells were added to the plates, they were cultured at 37°C under 5% CO2. After 48 h cultivation, 5 μL of Cell Counting Kit-8 (Dojindo, Japan) was added, and the plates were further incubated for 2 h to assess cell growth and survival.

PfDPCK [5] = target: T2, PfDPCK; assay: Mechanism of PfDPCK inhibition by Lineweaver-Burk plot; assay type: biochemical
Procedure: In order to understand the mechanism of PfDPCK inhibition of the identified compounds, we independently selected compounds from 359 PfDPCK-specific inhibitor candidates (showing >40% inhibition at 10 μM against PfDPCK), based on the more stringent criteria of >80% inhibition at 10 μM against PfDPCK and <10% inhibition against HsCOASY, to yield 30 hits. The hits were prioritized using a multiparameter optimization (MPO) scoring model, developed by MMV (https://www.optibrium.com/downloads/scoring-profiles/mmv-antimalarial-scoring-profile/) based on calculated physicochemical properties, including molecular weight, logP, hydrogen bond donors and acceptors, rotatable bonds, and structural alerts ([20], [21]). We finally chose six representative compounds (A-15, A-33, and A-69, shown in Table S1, and other three compounds; A-126, A-127, and A-128) by manual inspection with “chemist eye” for chemical attractiveness (druglikeness). […] Furthermore, two compounds, A-33 and A-69, are considered to be pan-assay interference compounds (PAINS) (phenolic Mannich base) ([22]). We consequently focused on two commercially available compounds (A-15 and A-127) (Fig. 6A) and investigated their mechanism of inhibition. We differentiated the type of inhibition by Lineweaver-Burk plot with various concentrations of one substrate (dephospho-CoA or ATP), while the other substrate was given in saturating concentrations in kinetic studies (Fig. 5).
FIG 5 Lineweaver-Burk plots showing inhibition of two compounds, compound A-15 (A, B) and compound A-127 (C, D) on the PfDPCK activity. The enzymatic activities were determined with various concentrations of dephospho-CoA and 200 μM ATP (A, C) or various concentrations of ATP and 200 μM dephospho-CoA (B, D) in the presence of a range of concentrations of inhibitors. Data are shown in means ± SEMs of triplicate.
as §1

[6] = substrate: CC(C)(COP(=O)(O)OP(=O)(O)OCC1OC(n2cnc3c(N)ncnc32)C(O)C1O)C(O)C(=O)NCCC(=O)NCCS; assay: Kinetic analysis of recombinant HsCOASY (ADP Hunter Plus); assay type: biochemical, human; settings: other: substrate of HsCOASY; 30.0 °C
Procedure: as §1

[7] = substrate: CC(C)(COP(=O)(O)OP(=O)(O)OCC1OC(n2cnc3c(N)ncnc32)C(O)C1O)C(O)C(=O)NCCC(=O)NCCS; assay: Kinetic analysis of recombinant PfDPCK (ADP Hunter Plus); assay type: biochemical, Plasmodium falciparum; settings: other: substrate of PfDPCK; 30.0 °C
Procedure: as §1

[8] = drug-resistant Dd2, 72 h, means ± SEMs, read-out: IC50 (μM) of: Pf cell Dd2
[9] = Plasmodium falciparum, drug-sensitive 3D7, 72 h, means ± SEMs, read-out: IC50 (μM) of: Pf cell 3D7
[10] = recombinant enzyme, means ± SEMs, read-out: IC50 (μM) of: PfDPCK

Question: What does the source list for `Nc1ncnc2c1ncn2[C@@H]1O[C@H](COP(=O)(O)OP(=O)(O)OP(=O)(O)O)[C@@H](O)[C@H]1O` [ATP]?
Answer: Km (HsCOASY): 115 ± 13.1 µM; Km (PfDPCK [1]; substrate of PfDPCK): 88.1 ± 11 µM

Question: With `O=Cc1cc(C23CC4CC(CC(C4)C2)C3)cc([N+](=O)[O-])c1O` [Compound A-63] as the molecule, how does the “Selectivity index IC50 (HepG2/Dd2)” value ([2]; HepG2 IC50 / Dd2 IC50) read?
Answer: Its value is greater than 142.8.

Question: What about the IC50 [2, 8] of the same molecule?
Answer: The IC50 was 0.7 ± 0.22 µM.

Question: And the “Selectivity index IC50 (HepG2/3D7)” value ([3]; HepG2 IC50 / 3D7 IC50)?
Answer: Its value is greater than 16.6.

Question: And the IC50 [3, 9]?
Answer: The IC50 was 6.04 ± 0.05 µM.

Question: And the IC50 (PfDPCK [4]; [10])?
Answer: Its IC50 is 8.69 ± 0.01 µM.

Question: What about the IC50 (HepG2 cell line; 48 h, means ± SEMs) of the same molecule?
Answer: Its IC50 is greater than 100 µM.

Question: With `S=C(NCCc1ccccc1)NNc1nc2ccccc2[nH]1` [Compound A-65] as the molecule, how does the IC50 [2, 8] read?
Answer: Its IC50 is 0.36 ± 0.1 µM.

Question: What about the IC50 [3, 9] of the same molecule?
Answer: The IC50 was 4.4 ± 0.05 µM.

Question: And the IC50 (PfDPCK [4]; [10])?
Answer: The IC50 was 9.21 ± 0.12 µM.

Question: And the IC50 (HepG2 cell line; ND (maximum concentration tested 100 μM))?
Answer: Its IC50 is greater than 100 µM.

Question: Which IC50 ([2]; DD2, Table S1, means ± SEM, read-out: IC50 (μM) Pf cell Dd2) does the source give for `COc1cc(N2CCCC2)cc2ccc(-c3ccccn3)nc12` [Compound A-127] here?
Answer: The IC50 was less than 10 µM.

Question: And the IC50 ([3]; Plasmodium falciparum, 3D7, Table S1, means ± SEM, read-out: IC50 (μM) Pf cell 3D7)?
Answer: Its IC50 is less than 2 µM.

Question: What about the inhibition at 2 µM ([3]; Plasmodium falciparum, 3D7, at 2 μM, read-out: growth inhibition against 3D7) of the same molecule?
Answer: The inhibition at 2 µM was 80%.

Question: What about the IC50 (PfDPCK [4]; Table S1, means ± SEM, read-out: IC50 (μM) Pf DPCK) of the same molecule?
Answer: Its IC50 is 5.01 ± 0.46 µM.

Question: What about the Ki (PfDPCK [5]; in respect of ATP, 200 μM dephospho-CoA) of the same molecule?
Answer: The Ki was 8.99 µM.

Question: What about the type of inhibition (PfDPCK [5]; in respect of dephospho-CoA and ATP, Lineweaver-Burk plot) of the same molecule?
Answer: The type of inhibition was “uncompetitive or noncompetitive inhibition”.

Question: And the Ki (PfDPCK [5]; in respect of dephospho-CoA, 200 μM ATP)?
Answer: Its Ki is 14.9 µM.

Question: With `CC(C)(CO)[C@@H](O)C(=O)NCCC(=O)O` [pantothenate] as the molecule, how does the specific activity (PfDPCK [1]; as a substrate of PfDPCK) read?
Answer: Its specific activity is less than 0.01 µmol/min/mg.

B1: HsCOASY (Homo sapiens) (protein)
chain: T1 sequence (Q13057 1-564)
notes: His tag (pCold1 vector); made in house; host or cells: Escherichia coli BL21Star (DE3)
Question: Which Km [6] does the source give for B1 here?
Answer: The Km was 85.35 ± 13.4 µM.

B2: PfDPCK (Plasmodium falciparum 3D7) (protein)
chain: MFLKFFLDKCILCFLALGSIPIGYINRKNKFRKIENQKYALFSSIVMNSFLIYLNKFFGILGIFNFFLGNYLCLIGITGGIAVGKSTFCNFLKKKDVVVINADEITSKIYTKDSICYKKIVKHFGENILNNDKSINRTLLRKIVFNNEENVKYINKITHTYIILQIIKECLKYKFLYFKYNVAIEAPLLIETKLYLLTSPVILLKSSVRNQIKRILSRDKNCTYDTAMGIIKNQLPTDEKIKYADIIINNDGDILDLQMKCDVVYNKYLKNFFF
Question: With B2 as the molecule, how does the Km [7] read?
Answer: Its Km is 105.3 ± 10.2 µM.
